According to patent US20230114728A1 (Venatorx Pharmaceuticals, Inc., priority 2019, published 2023):
Values after ≈ are worked out from the molar mass of the structure shown.

Key:
[1] = target: T1, P. aeruginosa PBP3 (Pseudomonas aeruginosa, UniProt G3XD46); test: Bocillin-FL fluorescence polarization competition binding assay, P. aeruginosa PBP3; settings: fluorescence polarization competition binding assay using Bocillin-FL
T1 construct: made in house
Description: Example I: Experimental Method for Penicillin-Binding Protein Binding Assays with Bocillin-FL Via Fluorescence Polarization
To determine the ability of boronic acid-based test PBP inhibitors to bind Penicillin Binding Proteins (PBPs), Bocillin-FL (fluorescently-labeled penicillin V; ThermoFisher Scientific) was used in a fluorescence polarization (FP) competition binding assay to assess inhibitor binding to PBP2, PBP3 or PBP4 from Escherichia coli (K12), PBP3 from Pseudomonas aeruginosa (PA01), PBP1a, PBP2 and PBP3 from Acinetobacter baumannii (ATCC 19606), and PBP2 from Neiserria gonorrheae (FA19). PBPs were cloned and purified as described previously (E. coli PBPs, King, D. T, et al., ACS Infectious Diseases 2015, 1, 175-184; P. aeruginosa PBP3, Han et. al., PNAS 2010, 107 (51), 22002-22007; A. baumannii PBPs, Penwell et. al., Antimicrob. Agents Chemother. 2015, 59 (3), 1680-1689; N. gonorrhoeae PBP2, Singh et. al., J Biol. Chem. 2019, 294 (38), 14020-14032). To establish assay conditions for competition binding, enzyme titration/saturation binding experiments were initially performed. Bocillin-FL was prepared at 0.2 μM in a buffer comprised of 50 mM Hepes (pH 8.0), 300 mM NaCl and 5% (v/v) glycerol for reactions with E. coli, P. aeruginosa and N. gonorrhoeae PBPs, and 25 mM Tris (pH 8.0), 200 mM NaCl and 10% (v/v) glycerol and 0.005% (v/v) Tween 20 for reactions with A. baumannii PBPs. Saturation binding was performed by mixing 40 μl of PBP solutions ranging in concentrations from 0-24 μM with 40 μl of the 0.2 μM Bocillin-FL solution, in individual wells of a black 384-well microplate. FP was measured immediately upon mixing (Excitation, 490 nm; Emission, 520 nm; g-factor, 0.96), using a Cytation3 (BioTek) microplate reader and measured continuously for up to 120 minutes. […] The competition binding assay (80 μl final volume) was validated using beta-lactams and PBPs at final concentrations of: 1.5 μM, E. coli PBP3; 0.75 μM, P. aeruginosa PBP3; 1 μM A. baumannii PBP1a; 2.5 μM A. baumannii PBP2; 0.2 μM A. baumannii PBP3; and […] N. gonorrhoeae PBP2. Bocillin-FL was at 0.1 μM (0.05 μM with A. baumannii PBP1a) and beta-lactam concentrations ranged from 0-1000 μM. […] Bocillin-FL was added and the FP immediately measured for up to 60 minutes (90 minutes for E. coli PBP2). […] The beta-lactam potency was reported as the concentration of beta-lactam required to reduce the amount of PBP bound-Bocillin-FL by 50% (EC50). […] Binding assays for boronic acid PBP inhibitors were performed in an identical fashion for the respective PBPs

[2] = test system: A. baumannii ATCC 19606; test: Broth microdilution MIC in CAMHB; type: cell-based; settings: Acinetobacter baumannii, ATCC19606; MHB; read-out: Minimum Inhibitory Concentration, A. baumannii ATCC 19606
Protocol: (§1) Example III: In Vitro Antibacterial Assays
(§2) To determine the ability of test compounds to inhibit the growth of bacterial strains, classic cell based broth microdilution minimum inhibitory concentration (MIC) assays were employed. MIC assays are performed according to CLSI methods except where otherwise noted (CLSI, 2018 and CLSI, 2019). The reference type strain E. coli ATCC 25922; the wild-type parent strain E. coli AG100; the hyper-permeable E. coli 901C and E. coli D22; and the E. coli AG100A strain lacking the acrAB efflux pump encoding genes were used to determine the ability of the PBP inhibitors to penetrate the outer membrane of gram-negative bacteria and inhibit bacterial growth. […] The P. aeruginosa ATCC 27853 and A. baumannii ATCC 19606, along with the hyper-permeable P. aeruginosa ATCC 35151 and an engineered efflux pump-compromised strain of P. aeruginosa (ΔmexAB-oprM) were used to determine the ability of PBP inhibitors to penetrate the outer membrane of P. aeruginosa and A. baumannii and assess antibacterial activity against these important gram-negative organisms.
(§3) Briefly, cryo-preserved bacterial cultures of challenge strains are streaked for isolation on appropriate agar medium, in this case cation-adjusted Mueller Hinton agar. Following incubation to allow growth of the colonies, plates are sealed with parafilm and stored refrigerated for up to two weeks. For preparation of assay inoculum and to ensure low variability, at least 5 colonies are picked from the agar plates with an inoculating loop and aseptically transferred to a culture tube containing 3 mL of cation-adjusted Mueller Hinton broth (CAMHB). The broth culture is grown for 3-5 hours at 37° C. with shaking at 200 rpm. Meanwhile, 2-fold serial dilutions of test compounds are conducted in a 96-well plate with a final volume of 75 μL per well at 2-fold the final desired concentration. After the dilution plates are set up the growing cultures are then diluted in a cuvette containing CAMHB and the optical density is measured at 600 nm. The inoculum is diluted such that 75 μL of this culture in CAMHB results in a starting bacterial concentration of 2-8×10^5 CFU/mL when added to the dilution plates. The plates are incubated for 16-20 hours for Enterobacteriaceae and Pseudomonas and 20-24 hours for Acinetobacter at 37° C. The MIC values are read visually as the lowest concentration well with no bacterial growth.

[3] = test system: E. coli 901C; test: Broth microdilution MIC in CAMHB; type: cell-based; settings: Escherichia coli; MHB; hyper-permeable E. coli 901C; read-out: Minimum Inhibitory Concentration, E. coli 901C
Protocol: as §1, §2, §3

[4] = test system: E. coli AG100A; test: Broth microdilution MIC in CAMHB; type: cell-based; settings: Escherichia coli, read-out: Minimum Inhibitory Concentration, E. coli AG100A
Protocol: as §1, §2, §3

[5] = test system: E. coli AG100; test: Broth microdilution MIC in CAMHB; type: cell-based; settings: Escherichia coli; MHB; wild-type parent strain E. coli AG100; read-out: Minimum Inhibitory Concentration, E. coli AG100
Protocol: as §1, §2, §3

[6] = test system: E. coli ATCC 25922; test: Broth microdilution MIC in CAMHB; type: cell-based; settings: Escherichia coli, ATCC25922; MHB; E. coli ATCC 25922; read-out: Minimum Inhibitory Concentration, E. coli 25922
Protocol: as §1, §2, §3

[7] = test system: E. coli D22; test: Broth microdilution MIC in CAMHB; type: cell-based; settings: Escherichia coli; MHB; hyper-permeable E. coli D22; read-out: Minimum Inhibitory Concentration, E. coli D22
Protocol: as §1, §2, §3

[8] = test system: K. pneumoniae 848844 producing SHV-11 and KPC-2; test: Broth microdilution MIC in CAMHB; type: cell-based; settings: Klebsiella pneumoniae, read-out: Minimum Inhibitory Concentration, K. pneumoniae 848844
Protocol: as §1, §2, §3

[9] = test system: K. pneumoniae SI-117 producing VIM-1; test: Broth microdilution MIC in CAMHB; type: cell-based; settings: Klebsiella pneumoniae, read-out: Minimum Inhibitory Concentration, K. pneumoniae SI-117
Protocol: as §1, §2, §3

[10] = test system: K. pneumoniae UMM producing SHV-5 and KPC-2; test: Broth microdilution MIC in CAMHB; type: cell-based; settings: Klebsiella pneumoniae, read-out: Minimum Inhibitory Concentration, K. pneumoniae UMM
Protocol: as §1, §2, §3

[11] = test system: P. aeruginosa (ΔmexAB-oprM); test: Broth microdilution MIC in CAMHB; type: cell-based; settings: Pseudomonas aeruginosa, read-out: Minimum Inhibitory Concentration, P. aeruginosa ΔmexAB-OprM
Protocol: as §1, §2, §3

[12] = test system: P. aeruginosa ATCC 27853; test: Broth microdilution MIC in CAMHB; type: cell-based; settings: Pseudomonas aeruginosa, ATCC27853; MHB; read-out: Minimum Inhibitory Concentration, P. aeruginosa ATCC 27853
Protocol: as §1, §2, §3

[13] = test system: P. aeruginosa ATCC 35151; test: Broth microdilution MIC in CAMHB; type: cell-based; settings: Pseudomonas aeruginosa, ATCC35151; MHB; hyper-permeable strain; read-out: Minimum Inhibitory Concentration, P. aeruginosa ATCC 35151
Protocol: as §1, §2, §3

T1 sequence (G3XD46 whole entry): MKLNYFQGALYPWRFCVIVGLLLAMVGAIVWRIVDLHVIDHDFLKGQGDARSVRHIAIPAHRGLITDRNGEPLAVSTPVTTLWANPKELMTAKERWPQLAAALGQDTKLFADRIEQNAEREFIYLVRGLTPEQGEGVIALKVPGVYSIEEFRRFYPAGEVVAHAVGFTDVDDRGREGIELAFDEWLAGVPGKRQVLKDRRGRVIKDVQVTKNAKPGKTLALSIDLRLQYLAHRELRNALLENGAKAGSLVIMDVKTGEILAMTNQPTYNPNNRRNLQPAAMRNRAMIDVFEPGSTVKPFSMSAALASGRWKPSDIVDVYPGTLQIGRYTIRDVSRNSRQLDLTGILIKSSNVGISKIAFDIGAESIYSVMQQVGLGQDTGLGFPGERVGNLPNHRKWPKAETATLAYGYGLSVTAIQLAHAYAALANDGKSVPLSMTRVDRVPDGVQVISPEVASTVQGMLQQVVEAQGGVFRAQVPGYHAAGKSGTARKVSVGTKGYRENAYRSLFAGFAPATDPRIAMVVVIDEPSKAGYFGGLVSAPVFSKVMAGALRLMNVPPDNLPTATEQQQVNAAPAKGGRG

Structure (SMILES) | P. aeruginosa PBP3 Potency [1] | MIC [2] [µg/mL] | MIC [3] [µg/mL] | MIC [4] [µg/mL] | MIC [5] [µg/mL] | MIC [6] [µg/mL] | MIC [7] [µg/mL] | MIC [8] [µg/mL] | MIC [9] [µg/mL] | MIC [10] [µg/mL] | MIC [11] [µg/mL] | MIC [12] [µg/mL] | MIC [13] [µg/mL]
NCCN1CCN(C(=O)N[C@@H](C(=O)N[C@H]2Cc3cccc(C(=O)O)c3OB2O)c2c(F)cccc2F)C(=O)C1=O (single isomer, unassigned) [Example 223] | D (D represents a potency <10 μM) | > 128 | > 128 | > 128 | > 128 | > 128 | > 128 | > 128 | 8 to 16 (≈ 14.3 to 28.6 µM) | 2 to 4 (≈ 3.58 to 7.15 µM) | 32 to 64 (≈ 57.2 to 114 µM) | > 128 | 2 to 4 (≈ 3.58 to 7.15 µM)
NCCN1CCN(C(=O)N[C@@H](C(=O)N[C@H]2Cc3cccc(C(=O)O)c3OB2O)c2c(Cl)cccc2Cl)C(=O)C1=O (single isomer, unassigned) [Example 224] | B (B represents a potency between 30 μM and 500 μM inclusive) | > 128 | > 128 | > 128 | > 128 | > 128 | > 128 | > 128 | > 128 | 8 to 16 (≈ 13.5 to 27 µM) | > 128 | > 128 | 32 to 64 (≈ 54 to 108 µM)
NCCCN1CCN(C(=O)N[C@@H](C(=O)N[C@H]2Cc3cccc(C(=O)O)c3OB2O)c2ccc(O)c(F)c2F)C(=O)C1=O (single isomer, unassigned) [Example 238] | D (D represents a potency <10 μM) | > 128 | 32 to 64 (≈ 54.3 to 109 µM) | 32 to 64 (≈ 54.3 to 109 µM) | 32 to 64 (≈ 54.3 to 109 µM) | 2 to 4 (≈ 3.39 to 6.79 µM) | 8 to 16 (≈ 13.6 to 27.2 µM) | 8 to 16 (≈ 13.6 to 27.2 µM) | 0.5 to 1 (≈ 0.848 to 1.7 µM) | < 0.25 | 2 to 4 (≈ 3.39 to 6.79 µM) | 32 to 64 (≈ 54.3 to 109 µM) | < 0.25
NCCCN1CCN(C(=O)N[C@H](C(=O)N[C@H]2Cc3cccc(C(=O)O)c3OB2O)c2ccc(O)c(F)c2F)C(=O)C1=O (single isomer, unassigned) [Example 239] | C (C represents a potency between 10 and 30 μM) | > 128 | > 128 | > 128 | > 128 | > 128 | > 128 | > 128 | 8 to 16 (≈ 13.6 to 27.2 µM) | 2 to 4 (≈ 3.39 to 6.79 µM) | 8 to 16 (≈ 13.6 to 27.2 µM) | > 128 | 2 to 4 (≈ 3.39 to 6.79 µM)
CCN1C[C@H](C)N(C(=O)N[C@@H](C(=O)N[C@H]2Cc3cccc(C(=O)O)c3OB2O)c2ccc(O)c(F)c2F)C(=O)C1=O [Example 240, (3R)-3-(2-(2,3-difluoro-4-hydroxyphenyl)-2-((S)-4-ethyl-6-methyl-2,3-dioxopiperazine-1-carboxamido)acetamido)-2-hydroxy-3,4-dihydro-2H-benzo[e][1,2]oxaborinine-8-carboxylic acid] | D (D represents a potency <10 μM) | > 128 | > 128 | 32 to 64 (≈ 55.7 to 111 µM) | > 128 | 32 to 64 (≈ 55.7 to 111 µM) | 32 to 64 (≈ 55.7 to 111 µM) | 32 to 64 (≈ 55.7 to 111 µM) | 2 to 4 (≈ 3.48 to 6.96 µM) | < 0.25 | 8 to 16 (≈ 13.9 to 27.9 µM) | > 128 | 2 to 4 (≈ 3.48 to 6.96 µM)
C[C@H]1CN(CCCN)C(=O)C(=O)N1C(=O)NC(C(=O)N[C@H]1Cc2cccc(C(=O)O)c2OB1O)c1ccc(O)c(F)c1F (stereo partly drawn) [Example 243, (3R)-3-(2-((S)-4-(3-aminopropyl)-6-methyl-2,3-dioxopiperazine-1-carboxamido)-2-(2,3-difluoro-4-hydroxyphenyl)acetamido)-2-hydroxy-3,4-dihydro-2H-benzo[e][1,2]oxaborinine-8-carboxylic acid] | D (D represents a potency <10 μM) | > 128 | > 128 | 32 to 64 (≈ 53 to 106 µM) | 32 to 64 (≈ 53 to 106 µM) | 32 to 64 (≈ 53 to 106 µM) | 32 to 64 (≈ 53 to 106 µM) | 32 to 64 (≈ 53 to 106 µM) | 2 to 4 (≈ 3.31 to 6.63 µM) | 0.5 to 1 (≈ 0.829 to 1.66 µM) | 8 to 16 (≈ 13.3 to 26.5 µM) | > 128 | 2 to 4 (≈ 3.31 to 6.63 µM)
